Data from the supplement of paper PMC10307832.

Assays:
Assay in all cases: relative viability (nuclei count vs DMSO), 5 days (fraction); higher = more cells survive
[1] = compound: COc1ccc(-c2ccc3c(N4CCOC[C@@H]4C)nc(N4CCOC[C@@H]4C)nc3n2)cc1CO [AZD8055] + O=C(CCCCCCC(=O)Nc1ccccc1)NO [Vorinostat] (partner 1 µM)
How it was run: (§1)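 Lung cancer cell lines were pin-tool dosed in 1536-well plates on the day after seeding, with either a lone drug or a fixed anchor-drug dose plus five library-drug doses (not always all listed) in √10 steps. Nuclei were counted on 4× images after 5 days. Relative viability is the ratio of treated-well to vehicle-well nuclei counts, with each value a median of duplicate plates.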

[2] = compound: COc1ccc(-c2ccc3c(N4CCOC[C@@H]4C)nc(N4CCOC[C@@H]4C)nc3n2)cc1CO [AZD8055] + CS(=O)(=O)N1CCN(Cc2cc3nc(-c4cccc5[nH]ncc45)nc(N4CCOCC4)c3s2)CC1 [Pictilisib] (partner 1 µM)
How it was run: as §1

[3] = compound: COc1ccc(-c2ccc3c(N4CCOC[C@@H]4C)nc(N4CCOC[C@@H]4C)nc3n2)cc1CO [AZD8055] + C[C@@H](Oc1cc(-c2cnn(C3CCNCC3)c2)cnc1N)c1c(Cl)ccc(F)c1Cl [Crizotinib] (partner 1 µM)
How it was run: as §1

[4] = compound: COc1ccc(-c2ccc3c(N4CCOC[C@@H]4C)nc(N4CCOC[C@@H]4C)nc3n2)cc1CO [AZD8055] + Cc1nc(Nc2ncc(C(=O)Nc3c(C)cccc3Cl)s2)cc(N2CCN(CCO)CC2)n1 [Dasatinib] (partner 0.075 µM)
How it was run: as §1

Cell Line	relative viability ([1]; first compound 0.01 µM)	relative viability ([1]; first compound 0.03162 µM)	relative viability ([1]; first compound 0.1 µM)	relative viability ([1]; first compound 0.3162 µM)	relative viability ([1]; first compound 1 µM)	relative viability ([2]; first compound 0.01 µM)	relative viability ([2]; first compound 0.03162 µM)	relative viability ([2]; first compound 0.1 µM)	relative viability ([2]; first compound 0.3162 µM)	relative viability ([2]; first compound 1 µM)	relative viability ([3]; first compound 0.01 µM)	relative viability ([3]; first compound 0.03162 µM)	relative viability ([3]; first compound 0.1 µM)	relative viability ([3]; first compound 0.3162 µM)	relative viability ([3]; first compound 1 µM)	relative viability ([4]; first compound 0.01 µM)	relative viability ([4]; first compound 0.03162 µM)	relative viability ([4]; first compound 0.1 µM)	relative viability ([4]; first compound 0.3162 µM)	relative viability ([4]; first compound 1 µM)
201T	0.974	0.943	0.824	0.679	0.575	0.623	0.606	0.521	0.495	0.472	1.09	1.02	0.997	0.772	0.721	0.537	0.564	0.501	0.398	0.416
A549						0.395	0.345	0.189	0.123	0.105	0.674	0.689	0.324	0.231	0.0846					
A-427	0.928	0.868	0.849	0.6	0.535	0.747	0.684	0.677	0.501	0.507	1.03	0.849	0.786	0.438	0.403	0.666	0.632	0.572	0.281	0.339
ABC-1	1.07	1.15	1.12	0.466	0.533	0.78	0.659	0.556	0.438	0.334	1.09	1.04	0.812	0.602	0.479	0.692	0.548	0.526	0.219	0.3
BEN	0.614	0.443	0.442	0.327	0.297	0.541	0.391	0.34	0.316	0.254	0.956	0.531	0.44	0.351	0.31	0.273	0.246	0.205	0.237	0.171
CAL-12T	0.954	0.631	0.598	0.276	0.217	0.393	0.341	0.349	0.322	0.213	0.557	0.607	0.521	0.308	0.165	0.536	0.388	0.34	0.136	0.12
COR-L23	0.505	0.395	0.326	0.169	0.177	0.95	0.478	0.35	0.16	0.17	0.585	0.738	0.55	0.271	0.169	0.581	0.44	0.309	0.137	0.164
COR-L 105	0.865	0.766	0.805	0.516	0.421	0.488	0.31	0.388	0.326	0.35	0.807	0.875	0.706	0.465	0.292	0.359	0.281	0.23	0.2	0.226
Calu-6						0.826	0.737	0.531	0.4	0.366	1.03	0.699	0.556	0.42	0.322					
ChaGo-K-1	0.769	0.673	0.741	0.631	0.541	0.817	0.848	0.801	0.49	0.346	1.28	1.21	1.07	1.18	0.887	0.614	0.537	0.433	0.375	0.352
EKVX	0.68	0.729	0.519	0.422	0.366	0.485	0.44	0.3	0.245	0.169	1.21	0.943	0.81	0.524	0.393	0.443	0.615	0.419	0.317	0.263
EMC-BAC-2	0.445	0.342	0.303	0.263	0.287	0.511	0.494	0.475	0.279	0.286	0.764	0.706	0.612	0.337	0.344	0.32	0.25	0.234	0.186	0.186
EPLC-272H	0.331	0.401	0.343	0.144	0.261	0.339	0.307	0.23	0.261	0.212	0.865	0.739	0.498	0.494	0.37	0.333	0.221	0.173	0.109	0.128
H3255	0.967	0.746	0.747	0.513	0.357	0.518	0.45	0.249	0.277	0.272	1.3	0.818	0.718	0.407	0.301	0.364	0.429	0.3	0.323	0.306
HARA	0.574	0.527	0.441	0.24	0.227	0.372	0.257	0.198	0.24	0.17	1.09	1.14	0.855	0.573	0.33	0.282	0.294	0.221	0.155	0.221
HCC-15	0.833	0.844	0.762	0.468	0.333	0.806	0.685	0.631	0.369	0.338	0.816	0.788	0.746	0.529	0.334	0.615	0.541	0.477	0.273	0.174
HCC-44	1.12	1.22	1.07	0.735	0.803	0.447	0.396	0.376	0.267	0.347	0.879	0.825	0.662	0.364	0.315					
